Results as given in patent US8546381B2, “Bridged heterocyclic compounds and methods of use” (Medivation Technologies, Inc., priority 2008, dated 2013).

Columns and labels:
[1] = target: T1, human recombinant serotonin (5-Hydroxytryptamine) 5-HT2C receptor (Homo sapiens, UniProt P28335); assay: Serotonin 5-HT2C radioligand binding ([3H]Mesulergine); conditions: read-out: Serotonin 5-HT2C, inhibition of ligand binding (1 μM)
T1 construct: expressed in transfected cells; host or cells: CHO-K1 cells
T1 sequence (P28335 33-458): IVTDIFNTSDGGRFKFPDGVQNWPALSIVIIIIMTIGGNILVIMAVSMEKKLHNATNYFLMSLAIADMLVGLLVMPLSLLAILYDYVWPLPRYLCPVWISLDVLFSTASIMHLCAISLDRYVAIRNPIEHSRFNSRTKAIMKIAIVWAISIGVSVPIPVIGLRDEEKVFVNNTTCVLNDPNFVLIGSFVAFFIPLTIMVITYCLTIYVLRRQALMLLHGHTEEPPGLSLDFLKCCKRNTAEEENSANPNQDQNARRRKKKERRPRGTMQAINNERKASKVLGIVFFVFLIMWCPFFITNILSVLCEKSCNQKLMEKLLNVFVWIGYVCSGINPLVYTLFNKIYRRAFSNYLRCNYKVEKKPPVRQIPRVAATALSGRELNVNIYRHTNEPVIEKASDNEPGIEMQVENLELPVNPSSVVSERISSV
Description: To evaluate in radioligand binding assays the activity of compounds of the invention, human recombinant serotonin (5-Hydroxytryptamine) 5-HT2C receptor expressed in Chinese hamster ovary (CHO-K1) cells (Wolf, W. A. and Schutz, J. S., J. Neurochem. 69:1449, 1997) in a modified Tris-HCl buffer (50 mM Tris-HCl, pH 7.4, 0.1% Ascorbic Acid, 10 μM Pargyline) was used. Compounds of the invention were incubated with 1 nM [^3H]Mesulergine for 60 minutes at 25° C. Non-specific binding was estimated in the presence of 1 μM Mianserin. Receptor proteins were filtered and washed, the filters were then counted to determine [^3H]Mesulergine specifically bound. Compounds were screened at 1 μM or lower, using 1% DMSO as vehicle. Biochemical assay results are presented as the percent inhibition of specific binding in Table 4.

[2] = target: T2, human recombinant histamine H2 receptor (Homo sapiens, UniProt P25021); assay: Histamine H2 radioligand binding ([125I]Aminopotentidine); conditions: compound at 1 μM; inhibition of specific [125I]Aminopotentidine binding; read-out: Histamine Binding (1 μM) H2, Percentage Inhibition
T2 construct: expressed in transfected cells; host or cells: CHO-K1 cells
Description: To evaluate in radioligand binding assays the activity of compounds of the invention, human recombinant histamine H2 receptor expressed in Chinese hamster ovary (CHO) K1 cells (Ruat, M., Proc. Natl. Acad. Sci. USA. 87(5):1658, 1990) in a 50 mM Phosphate buffer, pH 7.4 was used. Compounds of the invention were incubated with 0.1 nM [^125I]Aminopotentidine for 120 minutes at 25° C. Non-specific binding was estimated in the presence of 3 μM Tiotidine. Receptor proteins were filtered and washed, the filters were then counted to determine [^125I]Aminopotentidine specifically bound. Compounds were screened at 1 μM or lower, using 1% DMSO as vehicle. Biochemical assay results are presented as the percent inhibition of specific binding in Table 2.

[3] = target: T3, human recombinant dopamine D2L receptor (Homo sapiens, UniProt P14416); assay: Dopamine D2L radioligand binding ([3H]Spiperone); conditions: read-out: Dopamine (1 μM) D2L, inhibition of ligand binding
T3 construct: expressed in transfected cells; host or cells: CHO cells
Description: To evaluate in radioligand binding assays the activity of compounds of the invention, human recombinant dopamine D2L receptor expressed in Chinese hamster ovary (CHO) cells (Grandy, D. K. et al. Proc. Natl. Acad. Sci. USA. 86:9762, 1989; Hayes, G. et al., Mol. Endocrinol. 6:920, 1992) in a modified Tris-HCl buffer (50 mM Tris-HCl, pH 7.4, 1.4 mM Ascorbic Acid, 0.001% BSA, 150 mM NaCl) was used. Compounds of the invention were incubated with 0.16 nM [^3H]Spiperone for 120 minutes at 25° C. Non-specific binding was estimated in the presence of 10 μM Haloperidol. Receptor proteins were filtered and washed, the filters were then counted to determine [^3H]Spiperone specifically bound. Compounds were screened at 1 μM or lower, using 1% DMSO as vehicle. Biochemical assay results are presented as the percent inhibition of specific binding in Table 3.

[4] = target: T4, human recombinant histamine H1 receptor (Homo sapiens, UniProt P35367); assay: Histamine H1 radioligand binding ([3H]Pyrilamine); conditions: compound at 1 μM; inhibition of specific [3H]Pyrilamine binding; read-out: Histamine Binding (1 μM) H1, Percentage Inhibition
T4 construct: expressed in transfected cells; host or cells: CHO cells
Description: To evaluate in radioligand binding assays the activity of compounds of the invention, human recombinant histamine H1 receptor expressed in Chinese hamster ovary (CHO) cells (De Backer, M. D. et al., Biochem. Biophys. Res. Comm. 197(3):1601, 1993) in a modified Tris-HCl buffer (50 mM Tris-HCl, pH 7.4, 2 mM MgCl2, 100 mM NaCl, 250 mM Sucrose) was used. Compounds of the invention were incubated with 1.2 nM [^3H]Pyrilamine for 180 minutes at 25° C. Non-specific binding was estimated in the presence of 1 μM pyrilamine. Receptor proteins were filtered and washed, the filters were then counted to determine [^3H]Pyrilamine specifically bound. Compounds were screened at 1 μM or lower, using 1% DMSO as vehicle. Biochemical assay results are presented as the percent inhibition of specific binding in Table 2.

[5] = target: T5, human recombinant serotonin (5-Hydroxytryptamine) 5-HT2A receptor (Homo sapiens, UniProt P28223); assay: Serotonin 5-HT2A radioligand binding ([3H]Ketanserin); conditions: read-out: Serotonin 5-HT2A, inhibition of ligand binding (1 μM)
T5 construct: expressed in transfected cells; host or cells: CHO-K1 cells
Description: To evaluate in radioligand binding assays the activity of compounds of the invention, human recombinant serotonin (5-Hydroxytryptamine) 5-HT2A receptor expressed in Chinese hamster ovary (CHO-K1) cells (Bonhaus, D. W. et al. Br. J. Pharmacol. 115:622, 1995; Saucier, C. and Albert, P. R., J. Neurochem. 68:1998, 1997) in a 50 mM Tris-HCl buffer, pH 7.4, was used. Compounds of the invention were incubated with 0.5 nM [^3H]Ketanserin for 60 minutes at 25° C. Non-specific binding was estimated in the presence of 1 μM Mianserin. Receptor proteins were filtered and washed, the filters were then counted to determine [^3H]Ketanserin specifically bound. Compounds were screened at 1 μM or lower, using 1% DMSO as vehicle. Biochemical assay results are presented as the percent inhibition of specific binding in Table 4.

[6] = target: T6, human recombinant serotonin (5-Hydroxytryptamine) 5-HT6 receptor (Homo sapiens, UniProt P50406); assay: Serotonin 5-HT6 radioligand binding ([3H]LSD); conditions: read-out: Serotonin 5-HT6, inhibition of ligand binding (1 μM)
T6 construct: expressed in transfected cells; host or cells: human HeLa cells
Description: To evaluate in radioligand binding assays the activity of compounds of the invention, human recombinant serotonin (5-Hydroxytryptamine) 5-HT6 receptor expressed in human HeLa cells (Monsma, F. J. Jr. et al., Mol. Pharmacol. 43:320, 1993) in a modified Tris-HCl buffer (50 mM Tris-HCl, pH 7.4, 150 mM NaCl, 2 mM Ascorbic Acid, 0.001% BSA) was used. Compounds of the invention were incubated with 1.5 nM [3H]Lysergic acid diethylamide (LSD) for 120 minutes at 37° C. Non-specific binding was estimated in the presence of 5 μM Serotonin (5-HT). Receptor proteins were filtered and washed, the filters were then counted to determine [3H]LSD specifically bound. Compounds were screened at 1 μM or lower, using 1% DMSO as vehicle. Biochemical assay results are presented as the percent inhibition of specific binding in Table 4.

[7] = target: T7, human recombinant serotonin (5-Hydroxytryptamine) 5-HT7 receptor (Homo sapiens, UniProt P34969); assay: Serotonin 5-HT7 radioligand binding ([3H]LSD); conditions: read-out: Serotonin 5-HT7, inhibition of ligand binding (1 μM)
T7 construct: expressed in transfected cells; host or cells: CHO cells
Description: To evaluate in radioligand binding assays the activity of compounds of the invention, human recombinant serotonin (5-Hydroxytryptamine) 5-HT7 receptor expressed in Chinese hamster ovary (CHO) cells (Roth, B. L. et al., J. Pharmacol. Exp. Ther. 268:1403, 1994; Shen, Y. et al., J. Biol. Chem. 268:18200, 1993) in a modified Tris-HCl buffer (50 mM Tris-HCl, pH 7.4, 10 mM MgCl2, 0.5 mM EDTA) was used. Compounds of invention were incubated with 5.5 nM [^3H] Lysergic acid diethylamide (LSD) for 2 hours at 25° C. Non-specific binding was estimated in the presence of 10 μM Serotonin (5-HT). Receptor proteins were filtered and washed, the filters were then counted to determine [^3H]LSD specifically bound. Compounds were screened at 1 μM or lower, using 1% DMSO as vehicle. Biochemical assay results are presented as the percent inhibition of specific binding in Table 4.

T4 sequence (P35367 whole entry): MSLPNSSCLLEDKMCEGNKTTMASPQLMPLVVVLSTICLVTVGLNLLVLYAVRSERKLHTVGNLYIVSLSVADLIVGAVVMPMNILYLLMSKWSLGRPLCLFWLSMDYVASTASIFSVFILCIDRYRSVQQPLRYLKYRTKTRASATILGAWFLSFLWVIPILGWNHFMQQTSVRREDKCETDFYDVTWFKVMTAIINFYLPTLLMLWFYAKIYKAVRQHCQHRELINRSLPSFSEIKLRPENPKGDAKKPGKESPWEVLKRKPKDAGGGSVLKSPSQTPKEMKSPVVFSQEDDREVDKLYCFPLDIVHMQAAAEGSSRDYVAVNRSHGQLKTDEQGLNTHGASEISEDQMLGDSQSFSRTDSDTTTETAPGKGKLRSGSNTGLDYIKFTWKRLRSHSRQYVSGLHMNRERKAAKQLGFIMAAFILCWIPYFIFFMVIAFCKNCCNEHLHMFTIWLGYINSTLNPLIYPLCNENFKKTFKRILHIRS
T6 sequence (P50406 whole entry): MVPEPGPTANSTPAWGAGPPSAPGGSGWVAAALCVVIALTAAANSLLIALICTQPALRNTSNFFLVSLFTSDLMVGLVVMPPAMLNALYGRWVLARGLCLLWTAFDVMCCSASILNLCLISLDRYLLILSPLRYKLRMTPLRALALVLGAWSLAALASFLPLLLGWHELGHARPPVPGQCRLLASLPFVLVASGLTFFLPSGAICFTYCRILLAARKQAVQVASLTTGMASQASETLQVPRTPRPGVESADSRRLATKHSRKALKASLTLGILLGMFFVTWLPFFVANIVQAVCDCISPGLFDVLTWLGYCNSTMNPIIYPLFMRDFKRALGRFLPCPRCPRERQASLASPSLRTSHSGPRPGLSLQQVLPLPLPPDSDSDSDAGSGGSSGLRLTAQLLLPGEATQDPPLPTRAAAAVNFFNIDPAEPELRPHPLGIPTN
T7 sequence (P34969 whole entry): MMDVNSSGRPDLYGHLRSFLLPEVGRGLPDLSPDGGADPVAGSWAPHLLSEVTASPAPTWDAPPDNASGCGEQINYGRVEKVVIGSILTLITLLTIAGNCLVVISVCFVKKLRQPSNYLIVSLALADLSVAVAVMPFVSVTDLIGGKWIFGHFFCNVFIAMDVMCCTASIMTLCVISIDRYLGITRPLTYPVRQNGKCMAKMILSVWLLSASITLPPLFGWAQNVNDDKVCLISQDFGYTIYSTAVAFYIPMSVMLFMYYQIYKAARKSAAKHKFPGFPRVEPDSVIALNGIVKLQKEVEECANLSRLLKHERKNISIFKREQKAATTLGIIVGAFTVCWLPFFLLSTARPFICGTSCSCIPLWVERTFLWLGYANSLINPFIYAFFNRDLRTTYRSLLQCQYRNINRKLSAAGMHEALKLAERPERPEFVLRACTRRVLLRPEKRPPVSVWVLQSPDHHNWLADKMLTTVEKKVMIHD
T5 sequence (P28223 whole entry): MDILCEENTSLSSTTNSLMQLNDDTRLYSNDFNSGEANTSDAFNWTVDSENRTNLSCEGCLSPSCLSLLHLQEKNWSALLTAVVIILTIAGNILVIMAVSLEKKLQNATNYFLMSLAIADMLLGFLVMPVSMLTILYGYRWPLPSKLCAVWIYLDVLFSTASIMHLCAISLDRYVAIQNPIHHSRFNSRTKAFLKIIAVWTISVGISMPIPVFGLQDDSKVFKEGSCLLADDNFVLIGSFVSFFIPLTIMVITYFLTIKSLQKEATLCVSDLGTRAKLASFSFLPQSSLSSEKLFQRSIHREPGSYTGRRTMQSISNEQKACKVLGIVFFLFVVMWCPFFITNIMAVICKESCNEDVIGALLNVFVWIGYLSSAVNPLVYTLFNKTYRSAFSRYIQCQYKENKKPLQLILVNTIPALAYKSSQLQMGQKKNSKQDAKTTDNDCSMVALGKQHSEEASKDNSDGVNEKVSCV
T2 sequence (P25021 whole entry): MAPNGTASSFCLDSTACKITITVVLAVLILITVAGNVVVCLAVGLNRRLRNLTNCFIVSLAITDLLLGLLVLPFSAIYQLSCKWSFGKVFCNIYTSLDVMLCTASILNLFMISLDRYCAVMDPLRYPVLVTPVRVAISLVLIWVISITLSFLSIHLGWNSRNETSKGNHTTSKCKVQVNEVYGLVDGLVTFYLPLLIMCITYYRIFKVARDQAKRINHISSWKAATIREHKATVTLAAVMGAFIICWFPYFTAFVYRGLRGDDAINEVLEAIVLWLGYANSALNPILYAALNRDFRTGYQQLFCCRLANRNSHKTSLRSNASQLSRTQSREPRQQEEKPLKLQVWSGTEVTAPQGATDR
T3 sequence (P14416 whole entry): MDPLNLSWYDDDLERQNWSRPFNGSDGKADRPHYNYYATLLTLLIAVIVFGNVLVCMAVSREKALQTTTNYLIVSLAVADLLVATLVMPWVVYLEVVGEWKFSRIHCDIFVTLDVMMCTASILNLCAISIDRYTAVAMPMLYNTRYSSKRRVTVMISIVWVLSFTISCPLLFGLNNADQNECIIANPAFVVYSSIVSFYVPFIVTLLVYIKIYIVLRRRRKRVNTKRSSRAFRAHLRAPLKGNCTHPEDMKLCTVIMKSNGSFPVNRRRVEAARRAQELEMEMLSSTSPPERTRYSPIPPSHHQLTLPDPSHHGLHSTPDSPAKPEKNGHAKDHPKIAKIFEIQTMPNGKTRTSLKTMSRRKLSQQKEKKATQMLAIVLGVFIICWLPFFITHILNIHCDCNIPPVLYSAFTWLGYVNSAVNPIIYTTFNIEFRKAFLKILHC

| Structure (SMILES) | inhibition at 1 µM [1] [%] | inhibition at 1 µM [2] [%] | inhibition at 1 µM [3] [%] | inhibition at 1 µM [4] [%] | inhibition at 1 µM [5] [%] | inhibition at 1 µM [6] [%] | inhibition at 1 µM [7] [%] |
| --- | --- | --- | --- | --- | --- | --- | --- |
| C/C(=C\n1c2c(c3cc(Cl)ccc31)C1CCC(C2)N1C)c1cccnc1 (centres unmarked) [Compound 128] | 77 | 21 | 21 | 15 | 91 | 62 | 66 |
| C/C(=C\n1c2c(c3cc(C)ccc31)C1CCC(C2)N1C)c1cccnc1 (centres unmarked) [Compound 129] | 72 | 26 | 8 | 5 | 88 | 19 | 80 |
| C/C(=C\n1c2c(c3cc(Cl)ccc31)C1CCC(C2)N1C)c1ccc(Cl)c(Cl)c1 (centres unmarked) [Compound 132] | 95 | 99 |  | 87 | 100 | 31 | 81 |
| COc1ccc(C#Cn2c3c(c4cc(Cl)ccc42)C2CCC(C3)N2C)cc1F (centres unmarked) [Compound 154] | 97 | 87 | 13 | 30 | 96 | 31 | 21 |
| COc1ccc(C#Cn2c3c(c4cc(C)ccc42)C2CCC(C3)N2C)cc1F (centres unmarked) [Compound 155] | 99 | 84 | 10 | 10 | 100 | 49 | 24 |
| C/C(=C\n1c2c(c3cc(C)ccc31)C1CCC(C2)N1C)c1ccccc1F (centres unmarked) [Compound 164] | 93 | 41 | 12 | 65 | 94 | 57 | 96 |
